In brackets after ≈: the same amount, converted by molar mass.
Key:
[1] = Cytotoxicity against human EPC cells assessed as LDH release; type: toxicity, cell-based
[2] = Antiangiogenic activity in human EPC cells assessed as suppression of EPC tube formation incubated for 24 hrs by microscopic analysis; type: functional, cell-based

| SMILES | IC50 [2] | Activity [1] |
| --- | --- | --- |
| O=C(c1ccccc1)[C@H]1CN2O[C@@H]1CCC[C@H]2C[C@H](O)c1ccccc1 | 33.4 µg/mL (≈ 95 µM) | Non-Toxic |
| C/C=C/C#C/C=C/[C@@]1(O)[C@H](CO)CC=C[C@H]1O | 27.6 µg/mL (≈ 118 µM) | Non-Toxic |
| O=C(c1ccccc1)[C@H]1CN2O[C@H]1CCC[C@@H]2C[C@H](O)c1ccccc1 | 44 µg/mL (≈ 125 µM) | Non-Toxic |
| O=C(c1ccccc1)[C@@H]1CN2O[C@@H]1CCC[C@H]2C[C@H](O)c1ccccc1 | 30.6 µg/mL (≈ 87.1 µM) | – |

More lines, main results first:

| IC50 [2] | SMILES | Activity [1] |
| --- | --- | --- |
| 32 µg/mL (≈ 87.1 µM) | C[N@+]1([O-])CO[C@H](c2ccccc2)C[C@@H]1CCCCCC(=O)c1ccccc1 | Non-Toxic |
| 24.5 µg/mL (≈ 114 µM) | C/C=C/C#C/C=C/c1c(O)cccc1CO | Non-Toxic |
| 21.1 µg/mL (≈ 98.5 µM) | C/C=C/C#C/C=C\c1c(O)cccc1CO | Non-Toxic |
| 3.7 µg/mL (≈ 7.96 µM) | CNC(=O)c1cc(Oc2ccc(NC(=O)Nc3ccc(Cl)c(C(F)(F)F)c3)cc2)ccn1 [SORAFENIB] | – |
